In US20240277663A1, “PHARMACEUTICAL KITS AND USES THEREOF FOR TREATING COLORECTAL CANCER” (priority 2023, published 2024):
pIC50: −log10 of the molar value. Where two headings read alike, the source gives them in different places. Marks after values point to notes of the source that are not given here.

Legend:
HDAC7 = target: T1, HDAC7 (Homo sapiens, UniProt Q8WUI4); assay: HDAC enzymatic activity assay (fluorogenic, Reaction Biology)
T1 sequence (Q8WUI4 1-952): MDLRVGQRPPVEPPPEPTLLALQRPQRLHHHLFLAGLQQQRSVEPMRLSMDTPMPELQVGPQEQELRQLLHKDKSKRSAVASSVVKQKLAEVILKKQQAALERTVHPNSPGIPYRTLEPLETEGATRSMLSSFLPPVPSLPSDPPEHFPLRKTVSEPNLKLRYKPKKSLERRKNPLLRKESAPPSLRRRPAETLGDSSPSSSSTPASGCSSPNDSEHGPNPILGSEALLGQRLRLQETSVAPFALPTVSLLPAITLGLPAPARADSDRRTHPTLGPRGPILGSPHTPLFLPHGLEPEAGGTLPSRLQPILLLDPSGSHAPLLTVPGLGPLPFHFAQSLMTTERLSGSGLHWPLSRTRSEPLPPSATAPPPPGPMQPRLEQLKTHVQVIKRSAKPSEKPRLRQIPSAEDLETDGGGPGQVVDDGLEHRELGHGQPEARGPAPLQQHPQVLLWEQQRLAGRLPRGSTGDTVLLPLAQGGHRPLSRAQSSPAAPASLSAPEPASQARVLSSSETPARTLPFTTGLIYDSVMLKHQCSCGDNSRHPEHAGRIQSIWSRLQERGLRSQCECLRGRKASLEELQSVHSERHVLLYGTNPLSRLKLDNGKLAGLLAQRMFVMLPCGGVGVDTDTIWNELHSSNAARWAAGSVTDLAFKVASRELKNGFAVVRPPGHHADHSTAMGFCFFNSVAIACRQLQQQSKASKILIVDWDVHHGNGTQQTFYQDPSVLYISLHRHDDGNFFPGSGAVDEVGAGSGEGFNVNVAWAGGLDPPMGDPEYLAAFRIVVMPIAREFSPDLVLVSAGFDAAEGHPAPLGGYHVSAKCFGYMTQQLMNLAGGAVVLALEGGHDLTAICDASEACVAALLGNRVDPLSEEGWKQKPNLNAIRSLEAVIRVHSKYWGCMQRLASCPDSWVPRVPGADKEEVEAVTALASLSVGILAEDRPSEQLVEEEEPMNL

HDAC9 = HDAC9 (Homo sapiens, UniProt Q9UKV0); assay: as above
HDAC10 = target: T2, HDAC10 (Homo sapiens, UniProt Q969S8); assay: as above
T2 sequence (Q969S8 1-669): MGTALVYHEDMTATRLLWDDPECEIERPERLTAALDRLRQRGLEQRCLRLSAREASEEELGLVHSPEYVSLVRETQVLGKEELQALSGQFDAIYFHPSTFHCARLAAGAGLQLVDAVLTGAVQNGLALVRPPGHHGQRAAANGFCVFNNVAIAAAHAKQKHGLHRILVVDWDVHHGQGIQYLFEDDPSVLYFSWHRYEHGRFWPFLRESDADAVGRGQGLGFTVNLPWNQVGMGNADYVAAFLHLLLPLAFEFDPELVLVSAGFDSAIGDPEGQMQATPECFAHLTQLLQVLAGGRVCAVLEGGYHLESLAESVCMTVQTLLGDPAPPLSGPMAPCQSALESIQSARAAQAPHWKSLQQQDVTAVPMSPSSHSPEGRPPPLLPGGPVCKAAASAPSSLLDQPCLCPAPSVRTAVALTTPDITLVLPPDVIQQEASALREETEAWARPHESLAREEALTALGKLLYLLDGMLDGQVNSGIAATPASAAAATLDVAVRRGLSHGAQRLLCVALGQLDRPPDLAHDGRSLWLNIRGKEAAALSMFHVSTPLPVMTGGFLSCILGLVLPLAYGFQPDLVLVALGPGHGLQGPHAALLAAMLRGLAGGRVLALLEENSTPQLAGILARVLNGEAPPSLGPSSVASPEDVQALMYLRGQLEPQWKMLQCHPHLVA

HDAC11 = target: T3, HDAC11 (Homo sapiens, UniProt Q96DB2); assay: as above
T3 sequence (Q96DB2 1-347): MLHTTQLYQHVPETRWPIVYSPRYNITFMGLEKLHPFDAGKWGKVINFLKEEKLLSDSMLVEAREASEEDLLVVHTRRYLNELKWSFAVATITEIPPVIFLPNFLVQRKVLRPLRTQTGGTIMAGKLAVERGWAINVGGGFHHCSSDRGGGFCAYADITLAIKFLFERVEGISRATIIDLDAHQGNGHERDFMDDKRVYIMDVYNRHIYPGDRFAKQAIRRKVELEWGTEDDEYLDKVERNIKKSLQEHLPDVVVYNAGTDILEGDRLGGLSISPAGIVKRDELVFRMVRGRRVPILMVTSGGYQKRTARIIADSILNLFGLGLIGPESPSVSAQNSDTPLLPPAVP

colorectal cancer tumor = assay: Another batch: HDAC inhibitors (PCI-34051, elevenostat, ABT-301) with or without RMP1-14 in tumor-bearing mice; type: in vivo, mouse; conditions: another batch of experiments, data not shown; compared to vehicle group or to other combinations
[1] = system: CT26 allograft tumor (MSS subtype colorectal carcinoma); assay: CT26 subcutaneous tumor model, HDAC inhibitors with or without RMP1-14; conditions: for response in the mice on the growth of tumor (individual tumor volumes): compared to vehicle group or to other combinations, ABT-301 100 mg/kg, vorinostat 100 mg/kg, citarinostat 50 mg/kg, RMP1-14 200 μg
Method: MC-38 cells (purchased from Kerafast, Inc.), derived from C57BL/6 murine colon adenocarcinoma cells typically classified as microsatellite instable, were maintained in DMEM with 10% fetal bovine serum, 100 U/mL penicillin, 100 μg/mL streptomycin, 10 mM HEPES, and 1× nonessential amino acid. All the cells were maintained in a humidified atmosphere having 5% CO2 at 37° C.
(§1) Female BALB/c mice (BALB/cByJNarl) aged 5-7 weeks (for CT26 subcutaneous tumor model), and female C57BL/6 mice (C57BL/6JNarl) aged 5-7 weeks (for MC-38 subcutaneous tumor model), were housed in standard cages within the animal facility at the Industrial Technology Research Institute (ITRI). A one-week acclimatization period preceded the commencement of the study, with the health of the mice monitored daily. Animals were kept in rooms at 22-26° C. with 40-70% humidity, positive pressure, 60% air recirculation, ventilation rate 15-20 changes per hour, and a controlled light-dark cycle (12-12 hours).
(§2) CT26 cells (2×10^5) were suspended in 100 μl of PBS and subcutaneously inoculated into the right flank of female BALB/c mice. Tumors were measured with calipers, and tumor size was calculated as follows: tumor volume (V)=(L×S^2)/2 (L, longest diameter, mm; S, shortest diameter, mm). Tumor size and body weight of mice were monitored and recorded twice to thrice per week. The antitumor activities of treatments were expressed as percentages of tumor growth inhibition (% TGI), as calculated using the following formula: [1−(final tumor volume−initial tumor volume for treated group)/(final tumor volume−initial tumor volume for vehicle group)]×100. Body weight of each mouse was also compared to that on the first day of treatment (Day 0) and expressed as a percentage of Day 0 value.
When mean tumor volume reached about 80-100 mm^3, treatments were initiated and the day of treatment initiation was designated as Day 0. […] Treatments were administered for indicated period (31 days) or until humane endpoints. Eight or nine mice were used in each group. […] RMP1-14 was prepared with PBS.

[2] = system: CT26 allograft tumor (MSS subtype colorectal carcinoma); assay: CT26 subcutaneous tumor model, multiple doses of ABT-301 with or without avelumab; type: in vivo, mouse
Method: Treatments were administered for indicated period (24 days) or until humane endpoints. Ten mice were used in each group. […] Avelumab was prepared with PBS.

[3] = system: CT26 allograft tumor (MSS subtype colorectal carcinoma)
Method: As described herein, tumor responses were evaluated using Response Evaluation Criteria in Solid Tumors (RECIST) criteria. Complete response (CR) was defined as complete disappearance of measurable or evaluable tumor lesions; partial response (PR) was defined as reduction of the size of measurable tumor lesions by at least 30% (≥30%) compared to the original tumor size; stable disease (SD) was defined as reduction of the size of measurable tumor lesions by less than 30% (<30%) or enlargement of the size of measurable tumor lesions by less than 20% (<20%) compared to the original tumor size; and progressive disease (PD) was defined as growth of the tumor by more than 30% (>30%) in the tumor volume compared to the original tumor size or development of new lesions.
All the cells were maintained in a humidified atmosphere having 5% CO2 at 37° C.
as §1, §2
The administration of treatments commenced five days following the inoculation of CT26 cells, with the day of treatment initiation designated as Day 0. When mean tumor volume reached 50-100 mm^3, the mice were assigned into four groups through S-type grouping according to tumor size. […] Eight mice were used in each group. Treatments were administered for 43 days. […] Avelumab was prepared with PBS.

[4] = system: MC-38 allograft tumor (MSI-H subtype colorectal carcinoma)
Method: As described herein, tumor responses were evaluated using Response Evaluation Criteria in Solid Tumors (RECIST) criteria. Complete response (CR) was defined as complete disappearance of measurable or evaluable tumor lesions; partial response (PR) was defined as reduction of the size of measurable tumor lesions by at least 30% (≥30%) compared to the original tumor size; stable disease (SD) was defined as reduction of the size of measurable tumor lesions by less than 30% (<30%) or enlargement of the size of measurable tumor lesions by less than 20% (<20%) compared to the original tumor size; and progressive disease (PD) was defined as growth of the tumor by more than 30% (>30%) in the tumor volume compared to the original tumor size or development of new lesions. […]
Female BALB/c mice (BALB/cByJNarl) aged 5-7 weeks (for CT26 subcutaneous tumor model), and female C57BL/6 mice (C57BL/6JNarl) aged 5-7 weeks (for MC-38 subcutaneous tumor model), were housed in standard cages within the animal facility at the Industrial Technology Research Institute (ITRI). A one-week acclimatization period preceded the commencement of the study, with the health of the mice monitored daily. […]
MC-38 cells (2×10^5) were suspended in 100 μl of PBS and subcutaneously inoculated into the right flank of female C57BL/6 mice. Tumors were measured with calipers, and tumor size was calculated as follows: tumor volume (V)=(LxS^2)/2 (L, longest diameter, mm; S, shortest diameter, mm). Tumor size and body weight of mice were monitored and recorded twice to thrice per week. The antitumor activities of treatments were expressed as percentages of tumor growth inhibition (% TGI), as calculated using the following formula: [1−(final tumor volume−initial tumor volume for treated group)/(final tumor volume−initial tumor volume for vehicle group)]×100. Body weight of each mouse was also compared to that on the first day of treatment (Day 0) and expressed as a percentage of Day 0 value. […]

[5] = Day 28 after treatments, ABT-301 100 mg/kg PO, avelumab 100 μg IP, means ± SEM

HDAC9, sequence (Q9UKV0 whole entry): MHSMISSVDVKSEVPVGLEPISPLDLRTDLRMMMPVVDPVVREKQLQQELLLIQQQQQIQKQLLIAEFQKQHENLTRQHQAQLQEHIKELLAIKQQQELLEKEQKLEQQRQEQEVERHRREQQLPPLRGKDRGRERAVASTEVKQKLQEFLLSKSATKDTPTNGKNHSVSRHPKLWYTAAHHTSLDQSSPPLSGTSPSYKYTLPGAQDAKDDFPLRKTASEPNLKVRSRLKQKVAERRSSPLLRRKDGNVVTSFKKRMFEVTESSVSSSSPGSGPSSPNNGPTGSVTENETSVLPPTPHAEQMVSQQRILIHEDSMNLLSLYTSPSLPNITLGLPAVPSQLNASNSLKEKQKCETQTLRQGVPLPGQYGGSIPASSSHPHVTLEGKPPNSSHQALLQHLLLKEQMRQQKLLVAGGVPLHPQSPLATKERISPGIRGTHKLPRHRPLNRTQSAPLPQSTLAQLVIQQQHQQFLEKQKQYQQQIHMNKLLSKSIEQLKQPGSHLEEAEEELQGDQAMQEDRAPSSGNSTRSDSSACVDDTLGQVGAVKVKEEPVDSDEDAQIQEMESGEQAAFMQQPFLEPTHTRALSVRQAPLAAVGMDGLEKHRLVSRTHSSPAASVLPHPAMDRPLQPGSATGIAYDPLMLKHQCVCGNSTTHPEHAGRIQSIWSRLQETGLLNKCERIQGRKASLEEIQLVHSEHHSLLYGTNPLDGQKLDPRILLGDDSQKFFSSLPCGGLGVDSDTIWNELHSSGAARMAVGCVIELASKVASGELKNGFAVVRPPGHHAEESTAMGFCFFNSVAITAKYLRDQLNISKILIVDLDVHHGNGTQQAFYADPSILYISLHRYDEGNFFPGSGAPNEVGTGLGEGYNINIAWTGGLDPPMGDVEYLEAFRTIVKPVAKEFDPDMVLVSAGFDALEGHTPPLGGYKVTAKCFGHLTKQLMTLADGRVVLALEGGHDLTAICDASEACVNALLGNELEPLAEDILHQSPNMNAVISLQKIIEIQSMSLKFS

What does the source list for `Nc1cc(F)ccc1NC(=O)c1ccc(CNC(=O)/C=C/c2cccnc2)cc1` [Tucidinostat, reference compound]?
pIC50 (HDAC7): < 5.52; pIC50 (HDAC9): < 5.52; pIC50 (HDAC10): < 5.52; pIC50 (HDAC11): < 5.52

For `COc1ccc(Cn2ccc3ccc(C(=O)NO)cc32)cc1` [PCI-34051], which “response in the mice on the growth of tumor” value (colorectal cancer tumor) is on record?
Its value is “did not elicit a visible response”.

How did the “TGI (tumor growth inhibition)” value ([1]; Day 22 after treatments, ABT-301 100 mg/kg PO, vorinostat 100 mg/kg PO, citarinostat 50 mg/kg IP, RMP1-14 200 μg IP) turn out when `O=C(CCCCCCNC(=O)c1cnc(N(c2ccccc2)c2ccccc2Cl)nc1)NO` [Citarinostat] was run?
The value was 38%.

What about the “response in the mice on the growth of tumor (individual tumor volumes)” value [1] of the same molecule?
Its value is “did not elicit a visible response”.

With `COc1ccccc1NC(=O)NCc1ccc(C(=O)NO)cc1` [elevenostat] as the molecule, how does the “response in the mice on the growth of tumor” value (colorectal cancer tumor) read?
Its value is “did not elicit a visible response”.

How did the Tumor size ([2]; Day 24 after treatments, avelumab 200 μg alone, means ± SEM) turn out when “Avelumab: an anti-PD-L1 antibody [reference compound]” was run?
Its Tumor size is 31.79 ± 26.66** mm^3.

And the “number of mice exhibiting complete response (CR)” value ([2]; avelumab 200 μg IP BIW alone, out of 10 mice)?
The value was 7.

What about the “complete response (CR) rate” value ([3]; CT26-bearing BALB/c mice, n=8/group, ABT-301 100 mg/kg PO QD, avelumab 100 μg IP BIW) of the same molecule?
Its value is 1/8.

What about the Median survival ([3]; CT26 allograft tumor mice, over the entire study, ABT-301 100 mg/kg PO QD, avelumab 100 μg IP BIW) of the same molecule?
Its Median survival is 28 days.

And the “TGI (tumor growth inhibition)” value [3, 5]?
The value was 58.51 ± 14.14%.

And the Tumor size [3, 5]?
Its Tumor size is 559.63 ± 156.94 mm^3.

And the Tumor size ([4]; Day 25 after treatments, ABT-301 100 mg/kg PO, avelumab 200 μg IP, RMP1-14 200 μg IP, means ± SEM)?
Its Tumor size is 529.91 ± 329.24 mm^3.

And the “complete response (CR) rate” value ([4]; MC-38-bearing C57BL/6 mice, n=8/group, ABT-301 100 mg/kg PO QD, avelumab 200 μg IP BIW, RMP1-14 200 μg IP BIW)?
The value was 4/8.

And the Median survival ([4]; MC-38 allograft tumor mice, over the entire study, ABT-301 100 mg/kg PO QD, avelumab or RMP1-14 200 μg IP BIW)?
Its Median survival is 68 days.

Which “response in the mice on the growth of tumor (individual tumor volumes)” value [1] does the source give for `O=C(CCCCCCC(=O)Nc1ccccc1)NO` [Vorinostat] here?
The value was “did not elicit a visible response”.
